{"source": "paper PMC5734940", "about": "(Toxicology and applied pharmacology, 2017)", "key": {"[1]": {"tested_on": "Human iPSC-derived cardiomyocytes (iCell cardiomyocytes)", "test": "Calcium flux assay", "settings": "for Ca2+-flux phenotype in words: text to Figure 3; for Effect on beat frequency (in words): at 10 and/or 30 μM, PAHs; for Typical phenotypic response of calcium-flux signal trace: 30 μM, after 30 minutes of exposure, Figure 3"}, "[2]": {"tested_on": "Human iPSC-derived cardiomyocytes (iCell cardiomyocytes)", "format": "cell-based"}, "[3]": {"tested_on": "Human iPSC-derived cardiomyocytes (iCell cardiomyocytes)", "settings": "30 min after treatment, JC-10"}, "[4]": {"tested_on": "Human iPSC-derived cardiomyocytes (iCell cardiomyocytes)", "settings": "for Cytotoxicity (in words): 24 hrs, concentrations up to 30 μM"}, "[5]": {"settings": "at both short-term (30 min) and longer-term exposures (24 hrs)"}, "[6]": {"settings": "primarily at 24 hrs of exposure, Figure 5"}}, "note": "Read-outs that look alike come from different tables or passages of the source.", "data": [{"molecule": "C[n+]1ccc(-c2ccccc2)cc1.[I-]", "note": "[1-methyl-4-phenylpyridinium iodide, 1-Methyl-4-phenylpyridinium iodide (MPP+), reference compound]", "values": [{"measurement": "Ca2+-flux phenotype in words", "setting": "[1]", "value": "decrease in the peak frequency concomitant with an increase in the average peak width"}, {"measurement": "Cardiotoxic selectivity for peak frequency (selective = ratio ≥3)", "setting": "[2]; [5]", "value": "selective"}]}, {"molecule": "Brc1ccc(Oc2cc(Br)c(Br)cc2Br)c(Br)c1", "note": "[2,2′,4,4′,5-pentabromodiphenyl ether, 2,2′,4,4′,5-Pentabromodiphenyl ether]", "values": [{"measurement": "Cardiotoxic selectivity for peak frequency (selective = ratio ≥3)", "setting": "[2]; [5]", "value": "selective"}]}, {"molecule": "Brc1ccc(Oc2ccc(Br)cc2Br)c(Br)c1", "note": "[2,2′,4,4′-tetrabromodiphenyl ether, 2,2′4,4′-Tetrabromodiphenyl ether]", "values": [{"measurement": "Cardiotoxic selectivity for peak frequency (selective = ratio ≥3)", "setting": "[2]; [5]", "value": "selective"}]}, {"molecule": "CCCCC(CC)COP(=O)(Oc1ccccc1)Oc1ccccc1", "note": "(centres unmarked) [2-ethylhexyl diphenyl phosphate, 2- Ethylhexyl diphenyl phosphate (EHDP)]", "values": [{"measurement": "Effect on mitochondria / mitochondria potential (in words)", "setting": "[3]", "value": "selectively decreased mitochondria potential"}]}, {"molecule": "N#CCCNCCC#N", "note": "[3,3′-iminodipropionitrile, 3,3′-Iminodipropionitrile]", "values": [{"measurement": "Response in the Calcein AM readout", "setting": "[4]; [6]", "value": "positive response"}]}, {"molecule": "c1cc2c3c(c1)ccc1cccc(c13)C2", "note": "[4-H-cyclopenta(d,e,f)phenanthrene, 4-H-Cyclopenta(d,e,f)phenanthrene]", "values": [{"measurement": "Effect on beat frequency (in words)", "setting": "[1]", "value": "positive but generally weak effect"}]}, {"molecule": "C1=Cc2cccc3cccc1c23", "note": "[acenaphthylene, Acenaphthylene]", "values": [{"measurement": "Effect on beat frequency (in words)", "setting": "[1]", "value": "positive but generally weak effect"}, {"measurement": "Cardiotoxic selectivity for peak frequency (selective = ratio ≥3)", "setting": "[2]; [5]", "value": "selective"}]}, {"molecule": "c1ccc2cc3ccccc3cc2c1", "note": "[anthracene, Anthracene]", "values": [{"measurement": "Response in the Calcein AM readout", "setting": "[4]; [6]", "value": "positive response"}]}, {"molecule": "c1ccc2cc3c(ccc4ccccc43)cc2c1", "note": "[benz(a)anthracene, Benz(a)anthracene]", "values": [{"measurement": "Effect on beat frequency (in words)", "setting": "[1]", "value": "positive but generally weak effect"}, {"measurement": "Response in the Calcein AM readout", "setting": "[4]; [6]", "value": "positive response"}]}, {"molecule": "c1ccc2c(c1)cc1ccc3cccc4ccc2c1c34", "note": "[benzo(a)pyrene, Benzo(a)pyrene]", "values": [{"measurement": "Effect on beat frequency (in words)", "setting": "[1]", "value": "positive but generally weak effect"}]}, {"molecule": "c1ccc2c(c1)-c1cccc3c1c-2cc1ccccc13", "note": "[benzo(b)fluoranthene, Benzo(b)fluoranthene]", "values": [{"measurement": "Effect on beat frequency (in words)", "setting": "[1]", "value": "positive but generally weak effect"}, {"measurement": "Response in the Calcein AM readout", "setting": "[4]; [6]", "value": "positive response"}]}, {"molecule": "c1ccc2c(c1)c1cccc3ccc4cccc2c4c31", "note": "[benzo(e)pyrene, Benzo(e)pyrene]", "values": [{"measurement": "Typical phenotypic response of calcium-flux signal trace", "setting": "[1]", "value": "mild increases in peak frequency"}, {"measurement": "Effect on beat frequency (in words)", "setting": "[1]", "value": "positive but generally weak effect"}, {"measurement": "Response in the Calcein AM readout", "setting": "[4]; [6]", "value": "positive response"}]}, {"molecule": "c1ccc2cc3c(cc2c1)-c1cccc2cccc-3c12", "note": "[benzo(k)fluoranthene, Benzo(k)fluoranthene]", "values": [{"measurement": "Typical phenotypic response of calcium-flux signal trace", "setting": "[1]", "value": "mild increases in peak frequency"}, {"measurement": "Effect on beat frequency (in words)", "setting": "[1]", "value": "positive but generally weak effect"}, {"measurement": "Response in the Calcein AM readout", "setting": "[4]; [6]", "value": "positive response"}]}, {"molecule": "COc1ccc2cc3[n+](cc2c1OC)CCc1cc2c(cc1-3)OCO2", "note": "[berberine chloride, Berberine chloride, reference compound]", "values": [{"measurement": "Ca2+-flux phenotype in words", "setting": "[1]", "value": "decrease in the peak frequency concomitant with an increase in the average peak width"}, {"measurement": "Cardiotoxic selectivity for peak frequency (selective = ratio ≥3)", "setting": "[2]; [5]", "value": "selective"}]}, {"molecule": "O=C(O)CCCC[C@@H]1SC[C@@H]2NC(=O)N[C@@H]21", "note": "[biotin, Biotin, reference compound]", "values": [{"measurement": "Typical phenotypic response of calcium-flux signal trace", "setting": "[1]", "value": "unaffected regular Ca2+-flux"}, {"measurement": "Ca2+-flux phenotype in words", "setting": "[1]", "value": "regular beating pattern"}]}, {"molecule": "CCOP(=S)(OCC)Oc1nc(Cl)c(Cl)cc1Cl", "note": "[chlorpyrifos, Chlorpyrifos]", "values": [{"measurement": "Effect on mitochondria / mitochondria potential (in words)", "setting": "[3]", "value": "selectively decreased mitochondria potential"}]}, {"molecule": "CC1(C)[C@H](C(=O)O[C@H](C#N)c2cccc(Oc3ccccc3)c2)[C@@H]1C=C(Br)Br", "note": "[deltamethrin, Deltamethrin]", "values": [{"measurement": "Cardiotoxic selectivity for peak frequency (selective = ratio ≥3)", "setting": "[2]; [5]", "value": "selective"}]}, {"molecule": "CCCCC(CC)COC(=O)c1ccccc1C(=O)OCC(CC)CCCC", "note": "(centres unmarked) [di(2-ethylhexyl) phthalate, Di(2-ethylhexyl) phthalate]", "values": [{"measurement": "Cardiotoxic selectivity for peak frequency (selective = ratio ≥3)", "setting": "[2]; [5]", "value": "selective"}]}, {"molecule": "CN1C(=O)CN=C(c2ccccc2)c2cc(Cl)ccc21", "note": "[diazepam, Diazepam, reference compound]", "values": [{"measurement": "Effect on peak frequency (in words)", "setting": "[1]", "value": "altered peak frequency"}]}, {"molecule": "c1ccc2c(c1)Cc1ccccc1-2", "note": "[fluorene, Fluorene]", "values": [{"measurement": "Effect on beat frequency (in words)", "setting": "[1]", "value": "positive but generally weak effect"}, {"measurement": "Cardiotoxic selectivity for peak frequency (selective = ratio ≥3)", "setting": "[2]; [5]", "value": "selective"}]}, {"molecule": "Cl[C@H]1[C@H](Cl)[C@@H](Cl)[C@@H](Cl)[C@H](Cl)[C@H]1Cl", "note": "[lindane, Lindane]", "values": [{"measurement": "Effect on mitochondria / mitochondria potential (in words)", "setting": "[3]", "value": "selectively decreased mitochondria potential"}]}, {"molecule": "CCCCCC", "note": "[n-hexane, n-Hexane]", "values": [{"measurement": "Effect on peak frequency (in words)", "setting": "[1]", "value": "altered peak frequency"}, {"measurement": "Response in the Calcein AM readout", "setting": "[4]", "value": "positive response"}, {"measurement": "POD, Calcein AM readout", "setting": "[4]; human", "value": "below 30 μM"}]}, {"molecule": "c1ccc2ccccc2c1", "note": "[naphthalene, Naphthalene]", "values": [{"measurement": "Effect on beat frequency (in words)", "setting": "[1]", "value": "positive but generally weak effect"}]}, {"molecule": "CCOP(=S)(OCC)Oc1ccc([N+](=O)[O-])cc1", "note": "[parathion, Parathion]", "values": [{"measurement": "Effect on mitochondria / mitochondria potential (in words)", "setting": "[3]", "value": "selectively decreased mitochondria potential"}]}, {"molecule": "CC1(C)C(C=C(Cl)Cl)C1C(=O)OCc1cccc(Oc2ccccc2)c1", "note": "(centres unmarked) [permethrin, Permethrin]", "values": [{"measurement": "Cardiotoxic selectivity for peak frequency (selective = ratio ≥3)", "setting": "[2]; [5]", "value": "selective"}]}, {"molecule": "c1ccc2c(c1)ccc1ccccc12", "note": "[phenanthrene, Phenanthrene]", "values": [{"measurement": "Effect on beat frequency (in words)", "setting": "[1]", "value": "positive but generally weak effect"}]}, {"molecule": "c1cc2ccc3cccc4ccc(c1)c2c34", "note": "[pyrene, Pyrene]", "values": [{"measurement": "Effect on beat frequency (in words)", "setting": "[1]", "value": "positive but generally weak effect"}, {"measurement": "Cardiotoxic selectivity for peak frequency (selective = ratio ≥3)", "setting": "[2]; [5]", "value": "selective"}]}, {"molecule": "C=C(C)[C@H]1Cc2c(ccc3c2O[C@@H]2COc4cc(OC)c(OC)cc4[C@@H]2C3=O)O1", "note": "[rotenone, Rotenone]", "values": [{"measurement": "POD values in most other endpoints queried, including cytotoxicity", "setting": "[1]; endpoints other than JC-10 at 30 min", "value": "below 30 μM"}, {"measurement": "Ca2+-flux phenotype in words", "setting": "[1]", "value": "Negative inotropic effects"}, {"measurement": "Cytotoxicity (in words)", "setting": "[4]", "value": "highly cytotoxic"}]}, {"molecule": "CC(C)(C)C(O)(CCc1ccc(Cl)cc1)Cn1cncn1", "note": "(centres unmarked) [tebuconazole, Tebuconazole]", "values": [{"measurement": "Effect on mitochondria / mitochondria potential (in words)", "setting": "[3]", "value": "selectively decreased mitochondria potential"}]}, {"molecule": "O=P(Oc1ccccc1)(Oc1ccccc1)Oc1ccccc1", "note": "[triphenyl phosphate, Triphenyl phosphate]", "values": [{"measurement": "Effect on mitochondria / mitochondria potential (in words)", "setting": "[3]", "value": "selectively decreased mitochondria potential"}]}, {"molecule": "CC(C)[C@@H]1NC(=O)[C@H](C)OC(=O)[C@@H](C(C)C)NC(=O)[C@@H](C(C)C)OC(=O)[C@H](C(C)C)NC(=O)[C@H](C)OC(=O)[C@@H](C(C)C)NC(=O)[C@@H](C(C)C)OC(=O)[C@H](C(C)C)NC(=O)[C@H](C)OC(=O)[C@@H](C(C)C)NC(=O)[C@@H](C(C)C)OC1=O", "note": "[valinomycin, Valinomycin, reference compound]", "values": [{"measurement": "Cytotoxicity (in words)", "setting": "[4]", "value": "highly cytotoxic"}, {"measurement": "Effect on mitochondria / mitochondria potential (in words)", "setting": "[3]", "value": "strong effect"}]}, {"molecule": "Phenol, isopropylated, phosphate (3:1)", "values": [{"measurement": "Shape of concentration response for cardiomyocyte peak frequency", "setting": "[1]", "value": "non-monotonic concentration responses"}, {"measurement": "Cardiotoxic selectivity for peak frequency (selective = ratio ≥3)", "setting": "[2]", "value": "selective"}]}]}
